Tested on: WM-266-4 xenograft tumors
Experiment: WM-266-4 human melanoma xenograft model
Type: in vivo
Details: WM-266-4 xenograft tumors in female nude mice, staged at 112±6 mg; MEK compound 10 mg/kg PO qd x 14 (AM); rapamycin 5 mg/kg IP qd x 14 (PM); single agents or combination
Description: For subcutaneous or intradermal tumors, the mean tumor weight of each animal in the respective control and treatment groups was determined twice weekly during the study. Tumor weight (TW) was determined by measuring perpendicular diameters with a caliper, using the following formula: tumor weight (mg)=[tumor volume=length (mm)×width^2 (mm^2)]/2.
Percent inhibition of tumor growth (TGI) is determined with the following formula:
[formula] where X0=average TW of all tumors on group day; Xf=TW of treated group on Day f; Yf=TW of vehicle control group on Day f
[formula] TGI is calculated individually for each tumor to obtain a mean±SEM value for each experimental group. Statistical significance is determined using the 2-tailed Student's t-test (significance defined as P<0.05).
The WM-266-4 human melanoma cell line is PTEN-deficient, and harbors a heterozygous activating mutation in the gene encoding B-Raf. Therefore, the ability of a MEK inhibitor administered as monotherapy, and in combination with the mTOR inhibitor rapamycin, was examined to inhibit the growth of WM-266-4 xenograft tumors in nude mice.
Tumors were established in female nude mice and staged when the tumors reached 112±6 mg. […]

In the case of `CO[C@H]1C[C@@H]2CC[C@@H](C)[C@@](O)(O2)C(=O)C(=O)N2CCCC[C@H]2C(=O)O[C@H]([C@H](C)C[C@@H]2CC[C@@H](O)[C@H](OC)C2)CC(=O)[C@H](C)/C=C(\C)[C@@H](O)[C@@H](OC)C(=O)[C@H](C)C[C@H](C)/C=C/C=C/C=C/1C` [Rapamycin, rapamycin], the “TGI (%), tumor growth inhibition” value is reported as 60%.

Source: patent US7999006B2, “Methods of using MEK inhibitors” (Exelixis, Inc., priority 2006, dated 2011)
